Earlier results on 1 compound are cited in patent publication US8450380B2, “Method for implementing active ingredients in order to protect them and optimize their delivery method” (Coatex S.A.S., priority 2007, dated 2013).

The conditions of the series: general statement.

Take `O=c1c2cc(Cl)ccc2[nH]c2cc3c(=O)c4cc(Cl)ccc4[nH]c3cc12` [Magenta Cinquasia RT-235-D, 2,9 dichloro-5,12 dihydroquino [2,3-b] acridine-7,14 dione]: the Solubility result is reported as “non-hydrosoluble”.
